Laboratory results as given in ChEMBL document CHEMBL3132769, “Fragment growing to retain or alter the selectivity of anchored kinase hinge-binding fragments” (Medchemcomm, 2014).

What was measured:
[1] = biological target: T1, Serine/threonine-protein kinase BRSK1 (Homo sapiens) (UniProt Q8TDC3); assay: Inhibition of human full length BRSK1 expressed in baculovirus assessed as substrate phosphorylation using fluorescence-labelled peptides as substrate at 9 uM after 90 mins by microfluidic peptide phosphorylation assay
T1 sequence (whole entry): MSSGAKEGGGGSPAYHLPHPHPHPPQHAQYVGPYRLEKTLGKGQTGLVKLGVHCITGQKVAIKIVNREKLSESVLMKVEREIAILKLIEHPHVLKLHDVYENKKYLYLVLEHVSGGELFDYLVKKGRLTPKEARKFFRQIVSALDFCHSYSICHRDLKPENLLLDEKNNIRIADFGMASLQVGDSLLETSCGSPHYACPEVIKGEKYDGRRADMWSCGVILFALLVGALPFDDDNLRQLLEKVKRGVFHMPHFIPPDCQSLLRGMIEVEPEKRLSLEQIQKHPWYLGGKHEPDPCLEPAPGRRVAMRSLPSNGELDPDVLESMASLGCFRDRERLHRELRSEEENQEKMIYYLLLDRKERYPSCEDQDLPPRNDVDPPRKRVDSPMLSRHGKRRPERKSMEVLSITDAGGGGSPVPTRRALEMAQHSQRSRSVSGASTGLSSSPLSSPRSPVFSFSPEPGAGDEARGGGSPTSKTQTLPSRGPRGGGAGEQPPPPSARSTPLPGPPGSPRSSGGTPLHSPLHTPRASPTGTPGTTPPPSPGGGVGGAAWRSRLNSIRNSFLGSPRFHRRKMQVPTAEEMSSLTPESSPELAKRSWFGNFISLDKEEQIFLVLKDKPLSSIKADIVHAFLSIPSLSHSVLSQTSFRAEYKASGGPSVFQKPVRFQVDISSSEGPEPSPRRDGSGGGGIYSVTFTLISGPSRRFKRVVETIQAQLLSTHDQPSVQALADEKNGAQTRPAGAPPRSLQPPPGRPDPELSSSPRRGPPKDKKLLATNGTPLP

[2] = biological target: Protein kinase C alpha type (Homo sapiens) (UniProt P17252); assay: Inhibition of human truncated PKC alpha expressed in baculovirus assessed as substrate phosphorylation using fluorescence-labelled peptides as substrate at 95 uM after 90 mins by microfluidic peptide phosphorylation assay
[3] = biological target: Serine/threonine-protein kinase MARK2 (Homo sapiens) (UniProt Q7KZI7); assay: Inhibition of human full length MARK2 expressed in baculovirus assessed as substrate phosphorylation using fluorescence-labelled peptides as substrate at 0.2 uM after 90 mins by microfluidic peptide phosphorylation assay
Serine/threonine-protein kinase MARK2 (Homo sapiens), sequence (Q7KZI7 whole entry, the tested form may be a part): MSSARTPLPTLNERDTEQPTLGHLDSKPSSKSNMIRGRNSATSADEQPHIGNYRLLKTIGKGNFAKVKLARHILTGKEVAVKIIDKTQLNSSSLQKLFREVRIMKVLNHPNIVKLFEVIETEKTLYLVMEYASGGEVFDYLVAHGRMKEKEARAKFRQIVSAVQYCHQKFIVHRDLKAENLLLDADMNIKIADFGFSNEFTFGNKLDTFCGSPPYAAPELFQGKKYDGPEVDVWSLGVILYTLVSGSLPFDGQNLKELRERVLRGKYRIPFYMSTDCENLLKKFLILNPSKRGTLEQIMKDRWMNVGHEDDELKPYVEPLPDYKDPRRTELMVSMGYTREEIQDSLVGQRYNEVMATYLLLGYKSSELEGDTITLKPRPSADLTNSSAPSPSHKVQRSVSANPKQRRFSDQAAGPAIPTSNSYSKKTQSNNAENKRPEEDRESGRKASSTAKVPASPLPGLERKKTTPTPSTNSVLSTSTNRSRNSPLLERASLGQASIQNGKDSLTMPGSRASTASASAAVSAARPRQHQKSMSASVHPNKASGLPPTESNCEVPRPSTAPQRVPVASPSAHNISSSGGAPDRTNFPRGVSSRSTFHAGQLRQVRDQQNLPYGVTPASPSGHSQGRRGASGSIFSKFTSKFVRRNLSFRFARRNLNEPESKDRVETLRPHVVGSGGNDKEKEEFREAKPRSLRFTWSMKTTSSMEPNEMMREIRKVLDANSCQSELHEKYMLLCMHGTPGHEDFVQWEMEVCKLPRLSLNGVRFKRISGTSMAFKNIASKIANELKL

[4] = biological target: Platelet-derived growth factor receptor alpha (Homo sapiens) (UniProt P16234); assay: Inhibition of human PDGFR alpha catalytic domain expressed in baculovirus assessed as substrate phosphorylation using fluorescence-labelled peptides as substrate at 0.2 uM after 90 mins by microfluidic peptide phosphorylation assay
Platelet-derived growth factor receptor alpha (Homo sapiens), sequence (P16234 whole entry, the tested form may be a part): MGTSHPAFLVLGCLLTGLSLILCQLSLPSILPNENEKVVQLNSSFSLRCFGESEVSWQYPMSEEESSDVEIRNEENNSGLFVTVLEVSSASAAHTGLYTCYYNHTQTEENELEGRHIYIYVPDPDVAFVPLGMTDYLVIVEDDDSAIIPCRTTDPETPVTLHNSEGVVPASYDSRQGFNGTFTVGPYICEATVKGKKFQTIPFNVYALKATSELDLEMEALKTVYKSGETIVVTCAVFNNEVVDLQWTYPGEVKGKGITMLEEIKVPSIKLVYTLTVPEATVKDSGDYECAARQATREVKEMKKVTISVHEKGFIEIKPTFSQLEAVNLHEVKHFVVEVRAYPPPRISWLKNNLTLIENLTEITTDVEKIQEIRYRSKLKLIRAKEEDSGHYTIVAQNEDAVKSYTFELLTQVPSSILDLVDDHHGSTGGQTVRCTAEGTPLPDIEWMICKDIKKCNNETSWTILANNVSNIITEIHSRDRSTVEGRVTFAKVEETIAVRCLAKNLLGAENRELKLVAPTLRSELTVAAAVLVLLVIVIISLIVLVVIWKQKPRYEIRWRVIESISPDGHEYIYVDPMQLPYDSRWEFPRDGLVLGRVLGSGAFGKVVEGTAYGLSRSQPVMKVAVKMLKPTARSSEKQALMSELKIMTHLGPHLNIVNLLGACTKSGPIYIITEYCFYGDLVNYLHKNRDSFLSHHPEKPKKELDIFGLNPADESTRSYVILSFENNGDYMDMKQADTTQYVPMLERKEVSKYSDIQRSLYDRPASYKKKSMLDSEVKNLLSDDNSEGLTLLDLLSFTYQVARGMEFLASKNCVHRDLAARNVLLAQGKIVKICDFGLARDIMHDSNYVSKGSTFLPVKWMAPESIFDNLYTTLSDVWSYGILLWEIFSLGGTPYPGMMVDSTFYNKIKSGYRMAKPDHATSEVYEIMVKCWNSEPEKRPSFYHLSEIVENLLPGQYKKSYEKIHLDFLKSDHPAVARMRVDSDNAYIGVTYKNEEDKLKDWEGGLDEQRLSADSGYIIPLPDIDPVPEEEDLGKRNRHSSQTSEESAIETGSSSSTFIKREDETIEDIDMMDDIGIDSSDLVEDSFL

[5] = biological target: T2, Serine/threonine-protein kinase D2 (Homo sapiens) (UniProt Q9BZL6); assay: Inhibition of human full length PKD2 expressed in baculovirus assessed as substrate phosphorylation using fluorescence-labelled peptides as substrate at 8 uM after 90 mins by microfluidic peptide phosphorylation assay
T2 sequence (whole entry): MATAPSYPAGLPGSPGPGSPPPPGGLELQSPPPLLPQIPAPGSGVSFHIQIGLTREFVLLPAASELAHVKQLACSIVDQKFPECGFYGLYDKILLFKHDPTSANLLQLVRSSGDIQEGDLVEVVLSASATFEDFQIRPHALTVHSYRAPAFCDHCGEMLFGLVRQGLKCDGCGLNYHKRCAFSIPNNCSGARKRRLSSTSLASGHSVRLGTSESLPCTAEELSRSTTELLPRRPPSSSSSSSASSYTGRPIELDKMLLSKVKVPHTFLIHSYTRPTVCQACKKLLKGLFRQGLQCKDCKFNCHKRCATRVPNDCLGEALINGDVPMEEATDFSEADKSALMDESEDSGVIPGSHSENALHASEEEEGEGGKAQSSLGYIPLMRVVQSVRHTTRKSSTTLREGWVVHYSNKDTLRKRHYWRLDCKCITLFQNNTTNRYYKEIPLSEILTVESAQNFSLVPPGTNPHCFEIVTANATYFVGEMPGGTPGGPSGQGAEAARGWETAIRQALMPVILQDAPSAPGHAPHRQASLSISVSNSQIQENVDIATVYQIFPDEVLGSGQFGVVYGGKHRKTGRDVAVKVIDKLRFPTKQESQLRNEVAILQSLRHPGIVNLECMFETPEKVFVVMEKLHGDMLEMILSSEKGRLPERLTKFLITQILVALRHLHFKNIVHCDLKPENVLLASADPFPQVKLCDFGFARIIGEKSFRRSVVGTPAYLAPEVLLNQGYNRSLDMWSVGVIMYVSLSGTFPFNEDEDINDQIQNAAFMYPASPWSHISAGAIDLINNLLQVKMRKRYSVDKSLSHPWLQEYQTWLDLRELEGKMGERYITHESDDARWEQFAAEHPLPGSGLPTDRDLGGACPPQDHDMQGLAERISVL

[6] = biological target: T3, Protein kinase C epsilon type (Homo sapiens) (UniProt Q02156); assay: Inhibition of human truncated PKC epsilon expressed in baculovirus assessed as substrate phosphorylation using fluorescence-labelled peptides as substrate at 8 uM after 90 mins by microfluidic peptide phosphorylation assay
T3 sequence (whole entry): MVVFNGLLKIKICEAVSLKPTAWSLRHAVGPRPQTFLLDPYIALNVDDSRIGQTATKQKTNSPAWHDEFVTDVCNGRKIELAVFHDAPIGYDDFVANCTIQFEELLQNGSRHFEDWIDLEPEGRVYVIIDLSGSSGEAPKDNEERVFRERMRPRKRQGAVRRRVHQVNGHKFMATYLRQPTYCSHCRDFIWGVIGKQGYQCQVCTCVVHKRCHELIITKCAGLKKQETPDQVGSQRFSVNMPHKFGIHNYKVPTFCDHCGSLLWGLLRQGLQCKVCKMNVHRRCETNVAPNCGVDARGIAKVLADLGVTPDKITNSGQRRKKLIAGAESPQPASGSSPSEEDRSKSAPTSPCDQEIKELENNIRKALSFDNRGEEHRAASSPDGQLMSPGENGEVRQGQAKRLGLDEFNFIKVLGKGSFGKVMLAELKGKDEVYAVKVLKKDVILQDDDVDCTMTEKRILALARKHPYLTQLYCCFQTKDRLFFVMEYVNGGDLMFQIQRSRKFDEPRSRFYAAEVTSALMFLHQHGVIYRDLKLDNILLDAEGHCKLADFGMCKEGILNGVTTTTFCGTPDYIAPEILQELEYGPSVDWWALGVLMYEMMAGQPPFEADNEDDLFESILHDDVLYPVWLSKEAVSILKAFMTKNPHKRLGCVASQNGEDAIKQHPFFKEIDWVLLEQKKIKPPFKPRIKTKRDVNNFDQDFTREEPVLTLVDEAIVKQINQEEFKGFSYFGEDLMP

[7] = biological target: Casein kinase I isoform delta (Homo sapiens) (UniProt P48730); assay: Inhibition of human CK1D catalytic domain expressed in Escherichia coli cell assessed as substrate phosphorylation using fluorescence-labelled peptides as substrate at 8 uM after 90 mins by microfluidic peptide phosphorylation assay
Casein kinase I isoform delta (Homo sapiens), sequence (P48730 whole entry, looked up, the tested form may be a part, canonical isoform): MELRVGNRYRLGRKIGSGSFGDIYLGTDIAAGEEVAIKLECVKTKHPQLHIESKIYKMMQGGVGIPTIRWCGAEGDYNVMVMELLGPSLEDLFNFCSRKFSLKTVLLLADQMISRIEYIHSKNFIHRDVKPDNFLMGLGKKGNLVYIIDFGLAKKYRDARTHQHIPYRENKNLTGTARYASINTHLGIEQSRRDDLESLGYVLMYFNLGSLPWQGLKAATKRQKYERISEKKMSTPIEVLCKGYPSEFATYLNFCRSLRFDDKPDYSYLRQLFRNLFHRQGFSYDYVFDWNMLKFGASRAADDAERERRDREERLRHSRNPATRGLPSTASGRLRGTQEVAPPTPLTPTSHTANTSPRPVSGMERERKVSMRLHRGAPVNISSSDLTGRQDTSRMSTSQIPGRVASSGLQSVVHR

SMILES: NCC1CN(c2ncnc3[nH]c4cnccc4c23)CCO1 (configuration not stated)
- inhibition [1]: 29.5%

SMILES: NCCc1ccc(-c2ncnc3[nH]cnc23)cc1
- inhibition [2]: 69.5%

SMILES: Clc1ccc(C2(c3ccc(-c4ncnc5[nH]cnc45)cc3)CCNCC2)cc1
- inhibition [3]: 41.5%
- inhibition [4]: 0.5%

SMILES: NCC1CCN(c2ncnc3[nH]ccc23)CC1
- inhibition [5]: 28.5%
- inhibition [6]: 34%
- inhibition [7]: 25.5%
